In the NIST ThermoML archive (doi:10.1021/je050514j):
± gives the expanded uncertainty stated by the source.

How the values were obtained:
[1] = xn = mol fraction of the nth substance listed; conditions: 313.15 K, Fluid (supercritical or subcritical phases), x1 = 1
[2] = refractive index (Na D-line) (dimensionless); conditions: 298.15 K; 101.33 kPa; Liquid; Standard Abbe refractometry
[3] = 313.15 K, 1000 kPa, Fluid (supercritical or subcritical phases)
[4] = 313.15 K, 2000 kPa, Fluid (supercritical or subcritical phases)
[5] = 313.15 K, 3000 kPa, Fluid (supercritical or subcritical phases)
[6] = 313.15 K, 4000 kPa, Fluid (supercritical or subcritical phases)
[7] = 313.15 K, 5000 kPa, Fluid (supercritical or subcritical phases)
[8] = 313.15 K, 6000 kPa, Fluid (supercritical or subcritical phases)
[9] = 313.15 K, 7000 kPa, Fluid (supercritical or subcritical phases)
[10] = 313.15 K, 8000 kPa, Fluid (supercritical or subcritical phases)
[11] = 313.15 K, 9000 kPa, Fluid (supercritical or subcritical phases)
[12] = 313.15 K, 10000 kPa, Fluid (supercritical or subcritical phases)

O=C=O [carbon dioxide]
mass density [3]: 17.8 ± 0.2 kg/m3 | mass density [4]: 37.3 ± 0.2 kg/m3 | mass density [5]: 58.6 ± 0.3 kg/m3 | mass density [6]: 83.4 ± 0.4 kg/m3 | mass density [7]: 112.5 ± 0.5 kg/m3 | mass density [8]: 148.7 ± 0.8 kg/m3 | mass density [9]: 197.5 ± 1.2 kg/m3 | mass density [10]: 276.7 ± 2.7 kg/m3 | mass density [11]: 482.6 ± 3.9 kg/m3 | mass density [12]: 627.3 ± 3.5 kg/m3

O=C=O [carbon dioxide] + CCOC(C)=O
mass density ([1]; 1000 kPa): 17.8 ± 0.2 kg/m3 | mass density ([1]; 2000 kPa): 37.3 ± 0.2 kg/m3 | mass density ([1]; 3000 kPa): 58.6 ± 0.3 kg/m3 | mass density ([1]; 4000 kPa): 83.4 ± 0.4 kg/m3 | mass density ([1]; 5000 kPa): 112.5 ± 0.5 kg/m3 | mass density ([1]; 6000 kPa): 148.7 ± 0.8 kg/m3 | mass density ([1]; 7000 kPa): 197.5 ± 1.2 kg/m3 | mass density ([1]; 8000 kPa): 276.7 ± 2.7 kg/m3 | mass density ([1]; 9000 kPa): 482.6 ± 3.9 kg/m3 | mass density ([1]; 10000 kPa): 627.3 ± 3.5 kg/m3

CCOC(C)=O [ethyl acetate]
mass density (298.15 K, 101.33 kPa, Liquid): 894.4 ± 0.3 kg/m3 | mass density [3]: 876.9 ± 0.4 kg/m3 | mass density [4]: 878 ± 0.4 kg/m3 | mass density [5]: 878.9 ± 0.4 kg/m3 | mass density [6]: 880 ± 0.4 kg/m3 | mass density [7]: 881 ± 0.4 kg/m3 | mass density [8]: 881.9 ± 0.4 kg/m3 | mass density [9]: 882.9 ± 0.5 kg/m3 | mass density [10]: 883.9 ± 0.5 kg/m3 | mass density [11]: 884.9 ± 0.5 kg/m3 | mass density [12]: 885.9 ± 0.5 kg/m3 | Normal boiling temperature (Liquid, ebulliometry): 77.06 ± 0.05 °C | refractive index [2]: 1.3702 ± 0.3
